Assay results published in patent US20220213049A1, “S[…]-4-ONE FOR THE TREATMENT AND PROPHYLAXIS OF HEPATITIS B VIRUS INFECTION” (priority 2019, published 2022).

Legend:
[1] = system: HBeAg (surrogate marker for cccDNA) in HepDES19 cells; assay: Engineered HepDES19 primary screen assay (HBeAg ELISA); format: cell-based, HBV; details: Hepatitis B virus, HepDES19, 120 h, read-out: IC50 (HBeAg level, HepDES19 primary screen assay)
Description: The assay was employed to screen for novel cccDNA inhibitors. HepDES19 is a cccDNA-producing cell line. In this cell line, HBeAg in the cell culture supernatant as surrogate marker, as HBeAg production depends on cccDNA level and activity. HepDES19 is an engineered cell line which contains a 1.1 unit length HBV genome, and pgRNA transcription from the transgene is controlled by Tetracycline (Tet). In the absence of Tet, pgRNA transcription will be induced, but HBV e antigen (HBeAg) could not be produced from this pgRNA due to very short leader sequence before the HBeAg start codon and the start codon is disrupted. Only after cccDNA is formed, the missing leader sequence and start codon mutation would be restored from the 3′-terminal redundancy of pgRNA, and then HBeAg could be synthesized. Therefore, HBeAg could be used as a surrogate marker for cccDNA (Zhou, T. et al., Antiviral Res. (2006), 72(2), 116-124; Guo, H. et al., J. Virol. (2007), 81(22), 12472-12484).
HepDES19 cells were seeded at 2×10^6 cells per T150 flask and cultured with the culture medium (Dulbecco's Modified Eagle Medium: Nutrient Mixture F-12 [DMEM-F12, Gibco Cat. 11320-82], 10% Fetal Bovine Serum [FBS, Clontech Cat. 631101], 0.1 mM Non-Essential Amino Acids Solution [NEAA, Gibco Cat. 11140-050], 50 μg/mL Penicillin-Streptomycin [PS, Invitrogen Cat. 15140-163], 500 μg/mL Geneticin [G418, Invitrogen Cat. 10131-027]) containing 3 μg/mL Tet (Sigma, Cat. 87128) for 5 days. Cells were then seeded at 4×10^6 cells per T150 in the same culture medium as described above in the absence of Tet for 8 days. Cells were then harvested and frozen at density of 2×10^6 cells per ML. For compound testing, the frozen cells were thawed and seeded into 96-well plates at a density of 6×10^4 cells per well. At 24 hours after seeding, half log serial dilutions of compounds made with Dimethyl sulfoxide (DMSO, Sigma, Cat. D2650) were further diluted with the same culture medium as described above before they were added to the cells to reach desired final compound concentrations and 1% DMSO concentration. Plates were then incubated at 37° C. for another 5 days before measurement of HBeAg level and cell viability. Intracellular HBeAg level were measured with enzyme-linked immunosorbent assay (ELISA) kit (Shanghai Kehua Diagnostic Medical Products Co., Ltd). Cell viability was assessed using Cell Counting Kit-8 (DonJindo, Cat. CK04-20). IC50 values were derived from the dose-response curve using 4 parameter logistic curve fit method.
The compounds of the present invention were tested for their capacity to inhibit extracellular HBeAg level as described herein.

[2] = system: HBV (extracellular HBsAg) in PHH; assay: Cryopreserved primary human hepatocytes (PHH) HBV infection assay, HBsAg CLIA; format: cell-based; details: Hepatitis B virus, Hepatocyte, 216 h, read-out: HBsAg IC50
Method: This assay is used to confirm the anti-HBV effect of the compounds in HBV PHH infection assay. Cryopreserved PHH (BioreclamationIVT, Lot YJM) was thawed at 37° C. and gently transferred into pre-warmed InVitroGRO HT medium (BioreclamationIVT, Cat. S03317). The mixture was centrifuged at 70 relative centrifugal force (RCF) for 3 minutes at RT, and the supernatant was discarded. Pre-warmed InVitroGRO CP medium (BioreclamationIVT, Cat #S03316) was added to the cell pellet to gently re-suspend cells. The cells were seeded at the density of 5.8×10^4 cells per well to collagen I coated 96-well plate (Gibco, Cat. A1142803) with the InVitroGRO CP medium. All plates were incubated at 37° C. with 5% CO2 and 85% humidity.
At 20 hours after plating, the medium was changed to PHH culture medium (Dulbecco's Modified Eagle Medium (DMEM)/F12 (1:1) (Gibco, Cat. 11320-033), 10% fetal bovine serum (Gibco Cat. 10099141), 100 U/mL penicillin, 100 μg/mL streptomycin (Gibco, Cat. 151401-122), […] (Invitrogen Cat. PHG0311L), 20 ng/mL dexamethasone (Sigma, Cat. D4902) and 250 ng/mL human recombinant insulin (Gibco, Cat. 12585-014)). And the cells were incubated at 37° C. with 5% CO2 and 85% humidity for 4 hours. The medium was then changed to pre-warmed PHH culture medium containing 4% polyethylene glycol (PEG) MW8000 (Sigma, Cat. P1458-50ML) and 1% DMSO (Sigma, Cat. D2650). 5.8×10^6 genomic equivalents of HBV were added into the medium.
At 24 hours post-infection, the cells were gently washed with PBS and refreshed with PHH culture medium supplemented with 1% DMSO, and 0.25 mg/mL Matrix gel (Corning, Cat. 356237) at 200 μL per well. All plates were immediately placed in at 37° C. CO2 incubator.
24 hours later, serial dilutions of compounds made with DMSO were further diluted with the same culture medium (PHH culture medium supplemented with 1% DMSO and 0.25 mg/mL Matrix gel as described above) before they were added to the cells to reach desired final compound concentrations and 1% DMSO concentration. The medium containing the compounds were refreshed every three days.
At 9 days post-compound treatment, extracellular HBsAg level were measured with Chemiluminescence Immuno Assay (CLIA) kit (Autobio, HBsAg Quantitative CLIA). Extracellular HBV DNA was extracted by MagNA Pure 96 system (Roche) and then determined by quantitative PCR with the following primers and probe: […]
HBsAg IC50 and HBV DNA IC50 values were derived from the dose-response curve using 4 parameter logistic curve fit method. The compounds of formula (I) have HBsAg IC50<20 μM, particularly <1 μM; and HBV DNA IC50<50 μM.

Row | Structure (SMILES) | IC50 [1] [nM] | IC50 [2] [µM]
1 | COc1cc(Br)c(OCCO[C@H]2C[C@@H](C(=O)O)C2)cc1-c1cc(=O)c2cccc(Cl)c2o1 [Example 1, Cis-3-[2-[2-bromo-5-(8-chloro-4-oxo-chromen-2-yl)-4-methoxy-phenoxy]ethoxy]cyclobutanecarboxylic acid] | 3180 | 8.02
2 | COc1cc(Br)c(OCCC(=O)O)cc1-c1cc(=O)c2cccc(Cl)c2o1 [Example 2, 3-[2-Bromo-5-(8-chloro-4-oxo-chromen-2-yl)-4-methoxy-phenoxy]propanoic acid] | 1190 | 3.85
3 | COc1cc(Br)c(OC2CC(C(=O)O)C2)cc1-c1cc(=O)c2cccc(Cl)c2o1 (centres unmarked) [Example 5, 3-[2-Bromo-5-(8-chloro-4-oxo-chromen-2-yl)-4-methoxy-phenoxy]cyclobutanecarboxylic acid] | 6080 | 4.09
4 | COc1cc(Cl)c(OCCO[C@H]2C[C@@H](C(=O)O)C2)cc1-c1cc(=O)c2cccc(Cl)c2o1 [Example 8, Cis-3-[2-[2-chloro-5-(8-chloro-4-oxo-chromen-2-yl)-4-methoxy-phenoxy]ethoxy]cyclobutanecarboxylic acid] | 1500 | 5.13
5 | COc1cc(C)c(OCCCOCC(=O)O)cc1-c1cc(=O)c2cccc(Cl)c2o1 [Example 11, 2-[3-[5-(8-Chloro-4-oxo-chromen-2-yl)-4-methoxy-2-methyl-phenoxy]propoxy]acetic acid] | 2430 | 7.4
6 | Cc1ccc(-c2cc(=O)c3cccc(Cl)c3o2)cc1O[C@H]1C[C@@H](C(=O)O)C1 [Example 15, Cis-3-[5-(8-chloro-4-oxo-chromen-2-yl)-2-methyl-phenoxy]cyclobutanecarboxylic acid] | 490 | 1.96
7 | O=C(O)COc1cc(-c2cc(=O)c3cccc(Cl)c3o2)ccc1C(F)(F)F [Example 22, 2-[5-(8-Chloro-4-oxo-chromen-2-yl)-2-(trifluoromethyl)phenoxy]acetic acid] | 320 | 6.59
8 | COc1ccc(OCCO[C@H]2C[C@@H](C(=O)O)C2)cc1-c1cc(=O)c2cccc(Cl)c2o1 [Example 31, Cis-3-[2-[3-(8-Chloro-4-oxo-chromen-2-yl)-4-methoxy-phenoxy]ethoxy]cyclobutanecarboxylic acid] | 4660 | 10.2
9 | COc1c(-c2cc(=O)c3cccc(Cl)c3o2)ccc(Br)c1OC1CC(C(=O)O)C1 (centres unmarked) [Example 35, 3-[6-Bromo-3-(8-chloro-4-oxo-chromen-2-yl)-2-methoxy-phenoxy]cyclobutanecarboxylic acid] | 190 | 3.91
10 | COc1c(-c2cc(=O)c3cccc(Cl)c3o2)ccc(C)c1OC1CC(C(=O)O)C1 (centres unmarked) [Example 36, 3-[3-(8-Chloro-4-oxo-chromen-2-yl)-2-methoxy-6-methyl-phenoxy]cyclobutanecarboxylic acid] | 3130 | 9.26
11 | COc1c(-c2cc(=O)c3cccc(Cl)c3o2)ccc(Br)c1OCCCNC(=O)C(=O)O [Example 44, 2-[3-[6-Bromo-3-(8-chloro-4-oxo-chromen-2-yl)-2-methoxy-phenoxy]propylamino]-2-oxo-acetic acid] | 1440 | 
12 | COc1cc(Br)c(OCCNC(=O)C(=O)O)cc1-c1cc(=O)c2cccc(Cl)c2o1 [Example 45, 2-[2-[2-Bromo-5-(8-chloro-4-oxo-chromen-2-yl)-4-methoxy-phenoxy]ethylamino]-2-oxo-acetic acid] | 1400 | 
13 | COc1cc(Br)c(OCCCNC(=O)C(=O)O)cc1-c1cc(=O)c2cccc(Cl)c2o1 [Example 46, 2-[3-[2-Bromo-5-(8-chloro-4-oxo-chromen-2-yl)-4-methoxy-phenoxy]propylamino]-2-oxo-acetic acid] | 610 | 
